According to patent US20130130175A1, “Compound for Photoacid Generator, Resist Composition Using the Same, and Pattern-Forming Method” (CENTRAL GLASS COMPANY, LIMITED, priority 2007, published 2013):
Read-outs that look alike come from different tables or passages of the source.

Experiment: Solubility in propylene glycol methyl ether acetate
Assay type: physicochemical
From the text: 1.0 g of sodium 2-(1′-adamantane)carbonyloxy-1,1-difluoroethanesulfonate synthesized in Synthesis Example 8 was weighed and added to 100 g of propylene glycol methyl ether acetate, followed by stirring.
1.0 g of sodium 2-(3′-hydroxy-1′-adamantane)carbonyloxy-1,1-difluoroethanesulfonate synthesized in Synthesis Example 11 was weighed and added to 100 g of propylene glycol methyl ether acetate, followed by stirring.

| Solubility (1.0 g added to 100 g of propylene glycol methyl ether acetate, stirring) | Structure (SMILES) | Solubility |
| --- | --- | --- |
| completely dissolved | O=C(OCC(F)(F)S(=O)(=O)O)C12CC3CC(CC(O)(C3)C1)C2 [Synthesis Example 11, triphenylsulfonium 2-(3′-hydroxy-1′-adamantane)carbonyloxy-1,1-difluoroethanesulfonate] |  |
|  | O=C(OCC(F)(F)S(=O)(=O)O)C12CC3CC(CC(C3)C1)C2 [Synthesis Example 8, triphenylsulfonium 2-(1′-adamantane)carbonyloxy-1,1-difluoroethanesulfonate] | completely dissolved |
